The test deals with T1, human PF4 (Homo sapiens, UniProt P02776).
T1 construct: PF4 is a 70 amino acid, lysine-rich 7.8 kDa platelet-specific protein; made in house; host or cells: Escherichia coli BL21DE3 pLysS (pT7-7) and/or Drosophila S2 cells
T1 sequence (P02776 32-101): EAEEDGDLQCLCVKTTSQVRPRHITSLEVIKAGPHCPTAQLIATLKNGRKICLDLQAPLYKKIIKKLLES
Description: Inhibition of PF4 tetramer formation (BS3 cross-linking, SDS-PAGE). The test is classed as biochemical. The conditions noted are these: for inhibition at 1 µM: 1 μM inhibitor; for inhibition at 1 µM / inhibition at 3 µM: read-out: % inhibition of PF4 tetramer formation at single concentration of inhibitor; for inhibition at 3 µM: 3 μM inhibitor (column A); for IC50: read-out: IC50 of PF4 tetramer formation inhibition. Summed up:
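Recombinant human wild-type PF4 (E. coli-expressed, heparin-purified), 10 μg/ml in PBS, incubated with compound 15 min at 37° C or 60 min at room temperature, then cross-linked with 0.2 mM BS3 for 30 min at room temperature. Reducing 12% SDS-PAGE; bands quantified as % tetramer, trimer, dimer, monomer versus compound-free control.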

The source of these data is patent publication US20250281424A1 (New York Blood Center, Inc, priority 2020, published 2025).

Regarding `O=C(NCC1CCOC1)C1C(=O)c2ccc(S(=O)(=O)c3ccc4c(c3)C(=O)C(C(=O)NCC3CCOC3)C4=O)cc2C1=O` (stereo not drawn) [Example 362, 5-[(1,3-dioxo-2-{[(oxolan-3-yl)methyl]carbamoyl}-2,3-dihydro-1H-inden-5-yl)sulfonyl]-1,3-dioxo-N-[(oxolan-3-yl)methyl]-2,3-dihydro-1H-indene-2-carboxamide], the inhibition at 1 µM was determined as 33% and the inhibition at 3 µM was found to be 53%.

For `O=C(c1ccc2c(c1)C(=O)C(C(=O)NCC1CCOC1)C2=O)c1ccc2c(c1)C(=O)C(C(=O)NCC1CCOC1)C2=O` (stereo not drawn) [Example 363, 5-(1,3-dioxo-2-{[(oxolan-3-yl)methyl]carbamoyl}-2,3-dihydro-1H-indene-5-carbonyl)-1,3-dioxo-N-[(oxolan-3-yl)methyl]-2,3-dihydro-1H-indene-2-carboxamide], the inhibition at 1 µM was determined as 29%, the inhibition at 3 µM stood at 63% and the IC50 is 3960 nM.

With `CS(=O)(=O)N1CCC(NC(=O)C2C(=O)c3ccc(S(=O)(=O)c4ccc5c(c4)C(=O)C(C(=O)NC4CCN(S(C)(=O)=O)CC4)C5=O)cc3C2=O)CC1` (stereo not drawn) [Example 364, N-(1-methanesulfonylpiperidin-4-yl)-5-({2-[(1-methanesulfonylpiperidin-4-yl)carbamoyl]-1,3-dioxo-2,3-dihydro-1H-inden-5-yl}sulfonyl)-1,3-dioxo-2,3-dihydro-1H-indene-2-carboxamide], the inhibition at 1 µM came to 13%, the inhibition at 3 µM came to 74% and the IC50 worked out at 1350 nM.

As for `CS(=O)(=O)N1CCC(NC(=O)C2C(=O)c3ccc(C(=O)c4ccc5c(c4)C(=O)C(C(=O)NC4CCN(S(C)(=O)=O)CC4)C5=O)cc3C2=O)CC1` (stereo not drawn) [Example 365, N-(1-methanesulfonylpiperidin-4-yl)-5-{2-[(1-methanesulfonylpiperidin-4-yl)carbamoyl]-1,3-dioxo-2,3-dihydro-1H-indene-5-carbonyl}-1,3-dioxo-2,3-dihydro-1H-indene-2-carboxamide], the inhibition at 1 µM came out at 27%, the inhibition at 3 µM stood at 63% and the IC50 was 3390 nM.

For the molecule `O=C(NC1CCS(=O)(=O)C1)C1C(=O)c2ccc(Oc3ccc4c(c3)C(=O)C(C(=O)NC3CCS(=O)(=O)C3)C4=O)cc2C1=O` (stereo not drawn) [Example 366, N-(1,1-dioxo-1λ^6-thiolan-3-yl)-5-({2-[(1,1-dioxo-1λ^6-thiolan-3-yl)carbamoyl]-1,3-dioxo-2,3-dihydro-1H-inden-5-yl}oxy)-1,3-dioxo-2,3-dihydro-1H-indene-2-carboxamide], the inhibition at 1 µM worked out at 41%, the inhibition at 3 µM was 60% and the IC50 came to 550 nM.

For `O=C(NCC1CCS(=O)(=O)C1)C1C(=O)c2ccc(Oc3ccc4c(c3)C(=O)C(C(=O)NCC3CCS(=O)(=O)C3)C4=O)cc2C1=O` (stereo not drawn) [Example 367, N-[(1,1-dioxo-1λ^6-thiolan-3-yl)methyl]-5-[(2-{[(1,1-dioxo-1λ^6-thiolan-3-yl)methyl]carbamoyl}-1,3-dioxo-2,3-dihydro-1H-inden-5-yl)oxy]-1,3-dioxo-2,3-dihydro-1H-indene-2-carboxamide], the inhibition at 1 µM amounted to 30% and the inhibition at 3 µM was determined as 77%.

As for `O=C(NC1CCOCC1)C1C(=O)c2ccc(S(=O)(=O)c3ccc4c(c3)C(=O)C(C(=O)NC3CCOCC3)C4=O)cc2C1=O` (stereo not drawn) [Example 368, N-(oxan-4-yl)-5-({2-[(oxan-4-yl)carbamoyl]-1,3-dioxo-2,3-dihydro-1H-inden-5-yl}sulfonyl)-1,3-dioxo-2,3-dihydro-1H-indene-2-carboxamide], the inhibition at 1 µM came to 1% and the inhibition at 3 µM was determined as 45%.

For `CS(=O)(=O)N1CCC(NC(=O)C2C(=O)c3ccc(Oc4ccc5c(c4)C(=O)C(C(=O)NC4CCN(S(C)(=O)=O)CC4)C5=O)cc3C2=O)CC1` (stereo not drawn) [Example 369, N-(1-methanesulfonylpiperidin-4-yl)-5-({2-[(1-methanesulfonylpiperidin-4-yl)carbamoyl]-1,3-dioxo-2,3-dihydro-1H-inden-5-yl}oxy)-1,3-dioxo-2,3-dihydro-1H-indene-2-carboxamide], the inhibition at 1 µM came out at 1% and the inhibition at 3 µM is 21%.

`O=C1c2ccc(Oc3ccc4c(c3)C(=O)C(C(=O)C3CCCS3(=O)=O)C4=O)cc2C(=O)C1C(=O)C1CCCS1(=O)=O` (stereo not drawn) [Example 370, 2-(5-{[2-(1,1-dioxo-1λ^6-thiolane-2-carbonyl)-1,3-dioxo-2,3-dihydro-1H-inden-5-yl]oxy}-1,3-dioxo-2,3-dihydro-1H-indene-2-carbonyl)-1λ^6-thiolane-1,1-dione]: the inhibition at 1 µM was found to be 3% and the inhibition at 3 µM is 6%.

For `O=C(c1ccc2c(c1)C(=O)C(C(=O)C1CCCS1(=O)=O)C2=O)c1ccc2c(c1)C(=O)C(C(=O)C1CCCS1(=O)=O)C2=O` (stereo not drawn) [Example 371, 2-{5-[2-(1,1-dioxo-1λ^6-thiolane-2-carbonyl)-1,3-dioxo-2,3-dihydro-1H-indene-5-carbonyl]-1,3-dioxo-2,3-dihydro-1H-indene-2-carbonyl}-1λ^6-thiolane-1,1-dione], the inhibition at 1 µM came to 7% and the inhibition at 3 µM came out at 11%.

As for `O=C1c2ccc(S(=O)(=O)c3ccc4c(c3)C(=O)C(C(=O)C3CCCS3(=O)=O)C4=O)cc2C(=O)C1C(=O)C1CCCS1(=O)=O` (stereo not drawn) [Example 372, 2-(5-{[2-(1,1-dioxo-1λ^6-thiolane-2-carbonyl)-1,3-dioxo-2,3-dihydro-1H-inden-5-yl]sulfonyl}-1,3-dioxo-2,3-dihydro-1H-indene-2-carbonyl)-1λ^6-thiolane-1,1-dione], the inhibition at 3 µM is 30%.

Regarding `CC(C)(C)OC(=O)N1CC[C@H](C(=O)C2C(=O)c3ccc(C(=O)c4ccc5c(c4)C(=O)C(C(=O)[C@H]4CCN(C(=O)OC(C)(C)C)C4)C5=O)cc3C2=O)C1` (stereo partly drawn) [Example 373, tert-butyl (3S)-3-(5-{2-[(3S)-1-[(tert-butoxy)carbonyl]pyrrolidine-3-carbonyl]-1,3-dioxo-2,3-dihydro-1H-indene-5-carbonyl}-1,3-dioxo-2,3-dihydro-1H-indene-2-carbonyl)pyrrolidine-1-carboxylate], the inhibition at 1 µM turned out to be 5% and the inhibition at 3 µM was 3%.

On to `CC(C)(C)OC(=O)N1CC[C@H](C(=O)C2C(=O)c3ccc(S(=O)(=O)c4ccc5c(c4)C(=O)C(C(=O)[C@H]4CCN(C(=O)OC(C)(C)C)C4)C5=O)cc3C2=O)C1` (stereo partly drawn) [Example 374, tert-butyl (3S)-3-[5-({2-[(3S)-1-[(tert-butoxy)carbonyl]pyrrolidine-3-carbonyl]-1,3-dioxo-2,3-dihydro-1H-inden-5-yl}sulfonyl)-1,3-dioxo-2,3-dihydro-1H-indene-2-carbonyl]pyrrolidine-1-carboxylate], for which the inhibition at 1 µM was found to be 22% and the inhibition at 3 µM was 49%.

In the case of `CC(C)(C)OC(=O)N1CC[C@@H](C(=O)C2C(=O)c3ccc(C(=O)c4ccc5c(c4)C(=O)C(C(=O)[C@@H]4CCN(C(=O)OC(C)(C)C)C4)C5=O)cc3C2=O)C1` (stereo partly drawn) [Example 375, tert-butyl (3R)-3-(5-{2-[(3R)-1-[(tert-butoxy)carbonyl]pyrrolidine-3-carbonyl]-1,3-dioxo-2,3-dihydro-1H-indene-5-carbonyl}-1,3-dioxo-2,3-dihydro-1H-indene-2-carbonyl)pyrrolidine-1-carboxylate], the inhibition at 1 µM amounted to 14% and the inhibition at 3 µM stood at 32%.

As to `CC(C)(C)OC(=O)N1CC[C@@H](C(=O)C2C(=O)c3ccc(S(=O)(=O)c4ccc5c(c4)C(=O)C(C(=O)[C@@H]4CCN(C(=O)OC(C)(C)C)C4)C5=O)cc3C2=O)C1` (stereo partly drawn) [Example 376, tert-butyl (3R)-3-[5-({2-[(3R)-1-[(tert-butoxy)carbonyl]pyrrolidine-3-carbonyl]-1,3-dioxo-2,3-dihydro-1H-inden-5-yl}sulfonyl)-1,3-dioxo-2,3-dihydro-1H-indene-2-carbonyl]pyrrolidine-1-carboxylate], the inhibition at 1 µM is 22% and the inhibition at 3 µM amounted to 62%.

With `COCC(=O)C1C(=O)c2ccc(S(=O)(=O)c3ccc4c(c3)C(=O)C(C(=O)COC)C4=O)cc2C1=O` (stereo not drawn) [Example 377, 2-(2-methoxyacetyl)-5-{[2-(2-methoxyacetyl)-1,3-dioxo-2,3-dihydro-1H-inden-5-yl]sulfonyl}-2,3-dihydro-1H-indene-1,3-dione], the inhibition at 1 µM was found to be 26% and the inhibition at 3 µM came to 41%.

Regarding `CC(C)OCC(=O)C1C(=O)c2ccc(Oc3ccc4c(c3)C(=O)C(C(=O)COC(C)C)C4=O)cc2C1=O` (stereo not drawn) [Example 378, 5-({1,3-dioxo-2-[2-(propan-2-yloxy)acetyl]-2,3-dihydro-1H-inden-5-yl}oxy)-2-[2-(propan-2-yloxy)acetyl]-2,3-dihydro-1H-indene-1,3-dione], the inhibition at 1 µM came out at 39% and the inhibition at 3 µM is 69%.

With `CC(C)OCC(=O)C1C(=O)c2ccc(S(=O)(=O)c3ccc4c(c3)C(=O)C(C(=O)COC(C)C)C4=O)cc2C1=O` (stereo not drawn) [Example 379, 5-({1,3-dioxo-2-[2-(propan-2-yloxy)acetyl]-2,3-dihydro-1H-inden-5-yl}sulfonyl)-2-[2-(propan-2-yloxy)acetyl]-2,3-dihydro-1H-indene-1,3-dione], the inhibition at 1 µM is 43%, the inhibition at 3 µM came out at 68% and the IC50 is 660 nM.

For the molecule `CC(C)OC/C(O)=C1/C(=O)c2ccc(C(=O)c3ccc4c(c3)C(=O)/C(=C(/O)COC(C)C)C4=O)cc2C1=O` [Example 380, 5-{1,3-dioxo-2-[2-(propan-2-yloxy)acetyl]-2,3-dihydro-1H-indene-5-carbonyl}-2-[2-(propan-2-yloxy)acetyl]-2,3-dihydro-1H-indene-1,3-dione], the inhibition at 1 µM worked out at 17% and the inhibition at 3 µM came to 30%.
